# From US9730937B2, “RAF kinase modulator compounds and methods of use thereof” (AMBIT BIOSCIENCES CORPORATION, priority 2008, dated 2017)
# Where two headings read alike, the source gives them in different places.
# Tests used:
# RAF kinases = RAF kinases (Homo sapiens (Human), UniProt P04049); settings: read-out: RAF1 Kd, class symbols
# Protocol: The liganded beads were blocked with excess biotin and washed with blocking buffer (SeaBlock (Pierce), 1% BSA, 0.05% Tween 20, 1 mM DTT) to remove unbound ligand and to reduce non-specific binding. […] Test compounds were prepared as 100× stocks in DMSO and rapidly diluted into the aqueous environment. DMSO was added to control assays lacking a test compound. Primary screen interactions were performed in polypropylene 384-well plates in a final volume of 34 μL, while Kd determinations were performed in polystyrene 96-well plates in a final volume of 135 μL. […] The kinase concentration in the eluates was measured by quantitative PCR. Each kinase was tested individually against each compound. KdS were determined using eleven serial threefold dilutions. A selectivity score, which is a quantitative measure of selectivity of a compound against a panel of enzymes, may be calculated for a compound by dividing the number of enzymes for which a compound meets a set criteria, (for example, a binding constant of 100 nM or less), by the total number of enzymes tested. […] (Note, for those compounds tested in a larger kinase panel, as indicated by an asterisk (*) next to the S35 score, the divisor is 321 (i.e. the larger panel contains 321 distinct kinases, excluding mutant variants.)).
# wild type BRAF kinase [1] = target: T1, wild type BRAF kinase (Homo sapiens (Human), UniProt P15056); settings: read-out: BRAF WT Kd, class symbols
# [2] = test system: panel of 290 distinct kinases (321 in the larger panel), excluding mutant variants; settings: kinase selectivity score, class symbols
# mutant BRAF kinase = mutant BRAF kinase (Homo sapiens (Human), UniProt P15056, V600E); settings: read-out: BRAF V600E Kd, class symbols
# mutant BRAF kinase, sequence (P15056 whole entry V600E): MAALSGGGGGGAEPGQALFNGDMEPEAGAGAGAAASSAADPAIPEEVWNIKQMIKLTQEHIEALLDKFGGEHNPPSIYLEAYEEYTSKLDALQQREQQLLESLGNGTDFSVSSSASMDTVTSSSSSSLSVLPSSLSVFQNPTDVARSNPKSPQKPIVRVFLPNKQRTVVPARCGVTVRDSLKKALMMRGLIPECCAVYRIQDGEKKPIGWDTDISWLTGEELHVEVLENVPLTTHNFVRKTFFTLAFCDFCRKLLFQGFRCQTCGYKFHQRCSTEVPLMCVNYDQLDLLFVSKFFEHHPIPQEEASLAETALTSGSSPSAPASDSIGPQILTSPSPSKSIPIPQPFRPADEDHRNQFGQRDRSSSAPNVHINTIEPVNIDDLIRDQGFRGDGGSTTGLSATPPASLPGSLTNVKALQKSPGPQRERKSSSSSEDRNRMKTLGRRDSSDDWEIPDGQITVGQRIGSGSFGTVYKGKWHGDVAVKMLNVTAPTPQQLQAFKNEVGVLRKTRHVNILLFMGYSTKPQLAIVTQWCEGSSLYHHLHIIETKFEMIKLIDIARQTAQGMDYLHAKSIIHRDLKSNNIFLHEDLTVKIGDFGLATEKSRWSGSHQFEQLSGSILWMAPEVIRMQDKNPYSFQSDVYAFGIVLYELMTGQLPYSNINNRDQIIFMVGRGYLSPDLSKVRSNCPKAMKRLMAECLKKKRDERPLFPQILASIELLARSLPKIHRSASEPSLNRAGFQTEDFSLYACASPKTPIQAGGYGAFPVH
# wild type BRAF kinase [3] = target: T1, wild type BRAF kinase; experiment: biochemical
# [4] = value marked * (larger kinase panel)
# RAF kinases, sequence (P04049 whole entry): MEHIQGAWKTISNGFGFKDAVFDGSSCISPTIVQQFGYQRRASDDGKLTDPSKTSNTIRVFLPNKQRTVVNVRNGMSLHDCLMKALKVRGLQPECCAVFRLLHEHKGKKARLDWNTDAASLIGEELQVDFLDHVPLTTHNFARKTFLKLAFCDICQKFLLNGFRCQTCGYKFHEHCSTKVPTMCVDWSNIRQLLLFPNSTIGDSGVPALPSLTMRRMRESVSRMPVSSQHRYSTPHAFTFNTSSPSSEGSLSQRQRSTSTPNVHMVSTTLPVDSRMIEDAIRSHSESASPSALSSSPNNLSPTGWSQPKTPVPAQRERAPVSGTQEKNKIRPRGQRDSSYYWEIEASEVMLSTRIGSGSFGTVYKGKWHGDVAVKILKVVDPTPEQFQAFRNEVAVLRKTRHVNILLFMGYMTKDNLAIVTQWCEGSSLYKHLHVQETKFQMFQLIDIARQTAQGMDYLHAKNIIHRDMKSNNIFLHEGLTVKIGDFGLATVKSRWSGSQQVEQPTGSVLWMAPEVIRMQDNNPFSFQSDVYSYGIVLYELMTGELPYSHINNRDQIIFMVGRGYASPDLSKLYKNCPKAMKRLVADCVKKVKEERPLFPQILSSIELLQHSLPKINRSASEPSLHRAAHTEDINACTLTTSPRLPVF
# T1 sequence (P15056 whole entry): as the sequence (P15056 whole entry V600E) above, with E600V counted along it
SMILES,Kd (RAF kinases),Kd (wild type BRAF kinase [1]),"S35 [2, 4]",Kd (mutant BRAF kinase),S35 ([2]; 290 distinct kinases),Kd (wild type BRAF kinase [3])
"COCC(C)(C)c1cc(NC(=O)Nc2cccc(Oc3ncnc4cc(OC)c(OC)cc34)c2)on1 [Ex 128, 1-(3-(6,7-dimethoxyquinazolin-4-yloxy)phenyl)-3-(3-(1-methoxy-2-methylpropan-2-yl)isoxazol-5-yl)urea]",> 1000 nM,> 1000 nM,C* (0.20 < C ≦ 0.40),< 250 nM,,
"COc1cc2ncnc(Oc3cccc(NC(=O)Nc4cc(C(C)C)on4)c3)c2cc1OC [Ex 133, 1-(3-(6,7-dimethoxyquinazolin-4-yloxy)phenyl)-3-(5-isopropylisoxazol-3-yl)urea]",< 250 nM,< 250 nM,C* (0.20 < C ≦ 0.40),< 250 nM,,
"COc1cc2ncnc(Oc3cccc(NC(=O)Nc4cc(C(F)(F)F)nn4C)c3)c2cc1OC [Ex 164, 1-[3-(6,7-dimethoxyquinazolin-4-yloxy)phenyl]-3-[1-methyl-3-(trifluoromethyl)-1H-pyrazol-5-yl]urea]",< 250 nM,< 250 nM,C* (0.20 < C ≦ 0.40),< 250 nM,,
"COc1cc2ncnc(Sc3cccc(NC(=O)Nc4cc(C(C)(C)C)on4)c3)c2cc1OCCS(C)(=O)=O [Ex 88, 1-(5-tert-butylisoxazol-3-yl)-3-(3-(7-methoxy-6-(2-(methylsulfonyl)ethoxy)quinazolin-4-ylthio)phenyl)urea]",< 250 nM,< 250 nM,,< 250 nM,C (0.20 < C ≦ 0.40),
"COc1cc2ncnc(Oc3cccc(NC(=O)Nc4cc(C5CCCC5)on4)c3)c2cc1OC [Ex 135, 1-(5-cyclopentylisoxazol-3-yl)-3-(3-(6,7-dimethoxyquinazolin-4-yloxy)phenyl)urea]",< 250 nM,< 250 nM,C* (0.20 < C ≦ 0.40),< 250 nM,,
"COc1cc2ncnc(Oc3cccc(NC(=O)Nc4cc(C(C)(C)C)on4)c3)c2cc1O[C@H]1CCN(C)C1 [Ex 109, (S)-1-(5-tert-butylisoxazol-3-yl)-3-(3-(7-methoxy-6-(1-methylpyrrolidin-3-yloxy)quinazolin-4-yloxy)phenyl)urea]",< 250 nM,,,< 250 nM,D (D > 0.40),250 to 500 nM
"COc1cc2ncnc(Sc3cccc(NC(=O)Nc4cc(C(C)(CF)CF)nn4-c4ccccc4)c3)c2cc1OC [Ex 196, 1-[3-(1,3-difluoro-2-methylpropan-2-yl)-1-phenyl-1H-pyrazol-5-yl]-3-[3-(6,7-dimethoxyquinazolin-4-ylthio)phenyl]urea]",> 1000 nM,> 1000 nM,D* (D > 0.40),> 1000 nM,,
"COc1cc2ncnc(Oc3cccc(NC(=O)Nc4cccc(C(F)(F)F)c4)c3)c2cc1OC [Ex 181, 1-(3-(6,7-dimethoxyquinazolin-4-yloxy)phenyl)-3-(3-(trifluoromethyl)phenyl)urea]",< 250 nM,< 250 nM,C* (0.20 < C ≦ 0.40),< 250 nM,,
"COc1ccc(NC(=O)Nc2cccc(Oc3ncnc4cc(OC)c(OC)cc34)c2)cc1Cl [Ex 180, 1-(3-chloro-4-methoxyphenyl)-3-(3-(6,7-dimethoxyquinazolin-4-yloxy)phenyl)urea]",< 250 nM,< 250 nM,B* (0.10 < B ≦ 0.20),< 250 nM,,
"COc1cc2ncnc(Oc3cccc(NC(=O)Nc4cc(C(F)(F)F)n(C)n4)c3)c2cc1OC [Ex 165, 1-[3-(6,7-dimethoxyquinazolin-4-yloxy)phenyl]-3-[1-methyl-5-(trifluoromethyl)-1H-pyrazol-3-yl]urea]",< 250 nM,< 250 nM,C* (0.20 < C ≦ 0.40),< 250 nM,,
"COc1cc2ncnc(Oc3cccc(NC(=O)Nc4cc(C(C)(CF)CF)nn4-c4ccccc4)c3)c2cc1OC [Ex 167, 1-[3-(1,3-difluoro-2-methylpropan-2-yl)-1-phenyl-1H-pyrazol-5-yl]-3-[3-(6,7-dimethoxyquinazolin-4-yloxy)phenyl]urea]",> 1000 nM,> 1000 nM,D* (D > 0.40),> 1000 nM,,
"COCCOc1cc2ncnc(Oc3cccc(NC(=O)Nc4ccc(OC)c(C(F)(F)F)c4)c3)c2cc1OC [Ex 139, 1-(4-methoxy-3-(trifluoromethyl)phenyl)-3-(3-(6-methoxy-7-(2-methoxyethoxy)quinazolin-4-yloxy)phenyl)urea]",< 250 nM,< 250 nM,C* (0.20 < C ≦ 0.40),< 250 nM,,
"COc1cc2ncnc(Oc3cccc(NC(=O)Nc4cc(C(F)(F)F)ccn4)c3)c2cc1OC [Ex 141, 1-(3-(6,7-dimethoxyquinazolin-4-yloxy)phenyl)-3-(4-(trifluoromethyl)pyridin-2-yl)urea]",< 250 nM,< 250 nM,,< 250 nM,C (0.20 < C ≦ 0.40),
"COc1cc2ncnc(Oc3cccc(NC(=O)Nc4cc(C(C)C)no4)c3)c2cc1OC [Ex 122, 1-(3-(6,7-dimethoxyquinazolin-4-yloxy)phenyl)-3-(3-isopropylisoxazol-5-yl)urea]",< 250 nM,< 250 nM,,< 250 nM,C (0.20 < C ≦ 0.40),
"COc1cc2ncnc(Sc3cccc(NC(=O)Nc4cc(C(F)(F)F)nn4C)c3)c2cc1OC [Ex 193, 1-[3-(6,7-dimethoxyquinazolin-4-ylthio)phenyl]-3-[1-methyl-3-(trifluoromethyl)-1H-pyrazol-5-yl]urea]",< 250 nM,< 250 nM,D* (D > 0.40),< 250 nM,,
"COc1cc2ncnc(Oc3cccc(NC(=O)Nc4cc(C(C)(C)F)on4)c3)c2cc1OC [Ex 136, 1-(3-(6,7-dimethoxyquinazolin-4-yloxy)phenyl)-3-(5-(2-fluoropropan-2-yl)isoxazol-3-yl)urea]",< 250 nM,< 250 nM,C* (0.20 < C ≦ 0.40),< 250 nM,,
"COc1cc2c(Oc3cccc(NC(=O)Nc4cc(C(C)(C)C)on4)c3)ncnc2cc1OC[C@H](O)CN1CCN(C)CC1 [Ex 100, (R)-1-(5-tert-butylisoxazol-3-yl)-3-(3-(7-(2-hydroxy-3-(4-methylpiperazin-1-yl)propoxy)-6-methoxyquinazolin-4-yloxy)phenyl)urea]",< 250 nM,< 250 nM,,< 250 nM,D (D > 0.40),
"COc1cc2ncnc(Sc3cccc(NC(=O)Nc4cc(C(C)(C)C)nn4-c4ccccc4)c3)c2cc1OC [Ex 154, 1-(3-tert-butyl-1-phenyl-1H-pyrazol-5-yl)-3-(3-(6,7-dimethoxyquinazolin-4-ylthio)phenyl)urea]",> 1000 nM,> 1000 nM,D* (D > 0.40),> 1000 nM,,
"COc1cc2ncnc(Oc3cccc(NC(=O)Nc4cc(C(C)(C)C)on4)c3)c2cc1OCCCN1CCOCC1 [Ex 22, 1-(5-tert-butylisoxazol-3-yl)-3-(3-(7-methoxy-6-(3-morpholinopropoxy)quinazolin-4-yloxy)phenyl)urea]",< 250 nM,< 250 nM,,< 250 nM,D (D > 0.40),
"COc1cc2nc(Cl)nc(Sc3cccc(NC(=O)Nc4cc(C(C)(C)C)on4)c3)c2cc1OC [Ex 89, 1-(5-tert-butylisoxazol-3-yl)-3-(3-(2-chloro-6,7-dimethoxyquinazolin-4-ylthio)phenyl)urea]",> 1000 nM,> 1000 nM,,> 1000 nM,A (A ≦ 0.10),
"COc1cc2ncnc(Oc3cccc(NC(=O)Nc4cc(C5CC5)no4)c3)c2cc1OC [Ex 124, 1-(3-cyclopropylisoxazol-5-yl)-3-(3-(6,7-dimethoxyquinazolin-4-yloxy)phenyl)urea]",< 250 nM,< 250 nM,,< 250 nM,C (0.20 < C ≦ 0.40),
